ChEMBL document CHEMBL4842345, “Design, synthesis and biological evaluation of tanshinone IIA-based analogues: Potent inhibitors of microtubule formation and angiogenesis” (Eur J Med Chem, 2021)
pIC50: −log10 of the molar value.

Assays:
HepG2 = assay: Antiproliferative activity against human HepG2 cells assessed as reduction in cell viability measured after 72 hrs by MTT assay; format: functional, cell-based; conditions: HepG2, 72 h
HeLa = assay: Antiproliferative activity against human HeLa cells assessed as reduction in cell viability measured after 72 hrs by MTT assay; format: functional, cell-based
MCF7 = assay: Antiproliferative activity against human MCF7 cells assessed as reduction in cell viability measured after 72 hrs by MTT assay; format: functional, cell-based; conditions: MCF7, 72 h
MGC-803 = assay: Antiproliferative activity against human MGC-803 cells assessed as reduction in cell viability measured after 72 hrs by MTT assay; format: functional, cell-based; conditions: MGC-803, 72 h
U-937 = assay: Antiproliferative activity against human U-937 cells assessed as reduction in cell viability measured after 72 hrs by MTT assay; format: functional, cell-based; conditions: U-937, 72 h
A549 = assay: Antiproliferative activity against human A549 cells assessed as reduction in cell viability measured after 72 hrs by MTT assay; format: functional, cell-based; conditions: A549, 72 h
[1] = Kinetic solubility of the compound at pH 2 by nephelometry; format: physicochemical; conditions: buffer, read-out: Kinetic_solubility
[2] = Kinetic solubility of the compound at pH 6.5 by nephelometry; format: physicochemical; conditions: buffer, read-out: Kinetic_solubility
[3] = Metabolic stability in human liver microsomes assessed as degradation half life; format: ADME, Microsome; conditions: liver microsomes
[4] = Intrinsic clearance in human liver microsome; format: ADME, microsomes; conditions: liver microsomes, read-out: CLH

| pIC50 (HepG2) | pIC50 (HeLa) | pIC50 (MCF7) | pIC50 (MGC-803) | pIC50 (U-937) | pIC50 (A549) | solubility kinetic [1] [µg/mL] | solubility kinetic [2] [µg/mL] | half-life [3] [min] | microsomal CLint [4] [µL/min/mg] | SMILES |
| --- | --- | --- | --- | --- | --- | --- | --- | --- | --- | --- |
| 5.40 | 5.64 | < 5.30 | 5.53 | 5.45 | 5.75 | – | – | – | – | Cc1cc2c(o1)-c1ccc(O)cc1C(=O)C2=O |
| 5.42 | 5.63 | < 5.30 | 5.41 | < 5.30 | 6.37 | – | – | – | – | COc1cccc2c1-c1occ(C)c1C(=O)C2=O |
| < 5.30 | < 5.30 | < 5.30 | < 5.30 | < 5.30 | < 5.30 | – | – | – | – | Cc1coc2c1C(=O)C(=O)c1cc(O)ccc1-2 |
| 5.62 | 5.67 | 5.62 | 5.71 | 5.78 | 5.60 | – | – | – | – | Cc1cc2c(o1)-c1ccc(C(C)C)cc1C(=O)C2=O |
| 5.49 | 5.37 | 5.45 | < 5.30 | 5.66 | 5.82 | – | – | – | – | Cc1coc2c1C(=O)C(=O)c1cc(C(C)C)ccc1-2 |
| 5.46 | 5.86 | < 5.30 | < 5.30 | 5.47 | 6.12 | – | – | – | – | COc1ccc2c(c1)C(=O)C(=O)c1cc(C)oc1-2 |
| < 5.30 | < 5.30 | < 5.30 | < 5.30 | < 5.30 | < 5.30 | – | – | – | – | Cc1coc2c1C(=O)C(=O)c1cccc(O)c1-2 |
| 5.69 | 6.02 | 5.80 | 5.72 | 5.92 | 6.07 | – | – | – | – | Cc1coc2c1C(=O)C(=O)c1ccccc1-2 |
| < 5.30 | 5.55 | < 5.30 | 5.40 | 5.44 | 6.03 | – | – | – | – | COc1ccc2c(c1)C(=O)C(=O)c1c(C)coc1-2 |
| < 5.30 | < 5.30 | < 5.30 | < 5.30 | < 5.30 | < 5.30 | – | – | – | – | Cc1cc2c(o1)-c1c(O)cccc1C(=O)C2=O |
| 5.89 | 5.81 | 5.35 | 5.64 | 5.60 | 5.75 | – | – | – | – | Cc1coc2c1C(=O)C(=O)c1cc(Cl)ccc1-2 |
| 5.32 | 5.68 | < 5.30 | < 5.30 | 5.49 | 5.56 | – | – | – | – | COc1cccc2c1-c1oc(C)cc1C(=O)C2=O |
| 5.31 | 5.46 | < 5.30 | < 5.30 | < 5.30 | 5.66 | < 5 | < 5 | 10 | 45 | Cc1coc2c1C(=O)C(=O)c1c-2ccc2c1CCCC2(C)C [TANSHINONE IIA] |
| 5.56 | 5.82 | 5.89 | 5.45 | 5.80 | 5.52 | – | – | – | – | Cc1cc2c(o1)-c1ccccc1C(=O)C2=O |
| 5.91 | 5.93 | < 5.30 | 5.55 | 5.57 | 6.70 | – | – | – | – | Cc1cc2c(o1)-c1ccc3c(c1C(=O)C2=O)CCCC3(C)C |
